Data on 8 compounds can be found in paper PMC10985113, “Exploring bi-carbazole-linked triazoles as inhibitors of prolyl endo peptidase via integrated in vitro and in silico study” (Scientific Reports, 2024).

Chain of prolyl endopeptidase (P27028 21-705): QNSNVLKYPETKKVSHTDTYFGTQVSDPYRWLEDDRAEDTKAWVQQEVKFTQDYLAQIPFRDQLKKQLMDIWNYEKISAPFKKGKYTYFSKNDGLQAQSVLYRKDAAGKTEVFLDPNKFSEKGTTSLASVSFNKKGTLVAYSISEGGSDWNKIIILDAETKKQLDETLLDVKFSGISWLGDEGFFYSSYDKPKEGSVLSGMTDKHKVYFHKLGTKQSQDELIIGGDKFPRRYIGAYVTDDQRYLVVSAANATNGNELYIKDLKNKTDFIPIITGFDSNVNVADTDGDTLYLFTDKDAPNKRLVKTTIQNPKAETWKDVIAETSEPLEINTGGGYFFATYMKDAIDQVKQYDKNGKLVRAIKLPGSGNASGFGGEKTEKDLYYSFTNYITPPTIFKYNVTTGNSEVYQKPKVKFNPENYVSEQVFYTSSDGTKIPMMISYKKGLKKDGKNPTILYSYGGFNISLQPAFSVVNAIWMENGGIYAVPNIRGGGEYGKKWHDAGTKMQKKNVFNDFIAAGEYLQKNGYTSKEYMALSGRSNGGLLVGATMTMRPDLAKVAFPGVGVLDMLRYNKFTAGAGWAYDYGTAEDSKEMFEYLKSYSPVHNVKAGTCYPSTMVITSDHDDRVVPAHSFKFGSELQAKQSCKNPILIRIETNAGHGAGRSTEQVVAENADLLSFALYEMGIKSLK

One data set relates to prolyl endo peptidase. The experiment in a line: Kinetic studies (Lineweaver-Burk, Dixon plots) on PEP.
Settings: not given
The data set is classed as biochemical. The procedure:
Secondary replot of Line weaver-Burk plot between the slopes of each line on-Line weaver-Burk plot versus different concentrations of compounds 7, 8 (B, E). Dixon plot of reciprocal of rate of reaction (velocities) versus different concentrations of compounds 7, 8 (C, F).
In kinetic study PEP (0.02 U/200 L) was incubated with a range of inhibitor different concentrations for 10 min at 30 °C. The substrate was often utilized at doses between 0.2 and 0.5 mM. The substrate solutions (Z-Gly-Pro-pNA) were added at four different concentrations (0.2, 0.3, 0.4, and 0.5 mM), starting with the lowest concentration and working up to the highest concentration, to begin the catalytic reaction. Using a 96-well plate reader, the catalytic activity of PEP was measured at 410 nm (SpectraMax-384, Molecular Devices, CA, USA).
`O=C(Cn1cc(Cn2c3ccccc3c3cc(-c4ccc5c(c4)c4ccccc4n5Cc4cn(CC(=O)c5ccc(Cl)cc5)nn4)ccc32)nn1)c1ccc(Cl)cc1` [Compound 7]: the “type (pattern) of inhibition” value is given as “mixed”.

As to `O=C(Cn1cc(Cn2c3ccccc3c3cc(-c4ccc5c(c4)c4ccccc4n5Cc4cn(CC(=O)c5ccc(Br)cc5)nn4)ccc32)nn1)c1ccc(Br)cc1` [Compound 8], the “type (pattern) of inhibition” value is “mixed”.

Still in this data set, the particulars now being: substrate Z-Gly-Pro-pNA 0.2-0.5 mM.
Broadly, the Ki is a measure of affinity in units of concentration, obtained from inhibition or displacement. High values mean a looser hold on the target, low ones a stronger hold on the target. For `O=C(Cn1cc(Cn2c3ccccc3c3cc(-c4ccc5c(c4)c4ccccc4n5Cc4cn(CC(=O)c5ccc(Cl)cc5)nn4)ccc32)nn1)c1ccc(Cl)cc1` [Compound 7], the Ki is 24.1 ± 0.0076 µM.

`O=C(Cn1cc(Cn2c3ccccc3c3cc(-c4ccc5c(c4)c4ccccc4n5Cc4cn(CC(=O)c5ccc(Br)cc5)nn4)ccc32)nn1)c1ccc(Br)cc1` [Compound 8] came in with a Ki of 23.67 ± 0.0084 µM.

A further data set addresses prolyl endopeptidase (Elizabethkingia meningoseptica, UniProt P27028). The experiment in a line: In vitro prolyl endopeptidase inhibitory assay (spectrophotometric, Z-Gly-Pro-4-nitroanilide substrate). As to conditions: triplicate, ± SEM; read-out: (IC50 ± µM) in vitro prolyl endo peptidase inhibitory activity. The data set is classed as biochemical. The procedure:
Prolyl endopeptidase inhibitory activity was measured using a slightly modified version of Yoshimoto et al. spectrophotometric technique. In a 96-well plate, 140 µL of sodium phosphate buffer (50 mM, pH 7.0), 20 µL of the test substance (0.5 mM in methanol), and 20 µL of prolyl endopeptidase solution (0.02 U/well) were added to provide a total reaction volume of […]. Blank contained 20 µL methanol, instead of the test compound, while Z-prolyl-prolinal (0.5 mM) was used as the positive control. After the reaction mixture had been incubated at 30 °C for 10 min. Now 20 µL of the substrate solution, Z-Gly-Pro-4-nitroanilide (0.4 mM in 1,4-dioxane), was added, and a 96-well plate reader was used to continually monitor the change in absorbance at 410 nm for 30 min (SpectraMax-384, Molecular Devices, CA, USA). The reaction mixture's ultimate methanol and 1,4-dioxane concentrations were 10% v/v. In 96-well microplates, each reaction was carried out in triplicate.
The current study's experiments were all carried out in triplicate, and the data were presented as the standard error of the mean (SEM). Using the statistical software EZ-FIT enzyme kinetics, the IC50 values were determined (Perrella Scientific, Inc., Amherst, NH 03031, USA). […] (1) and (2).1 %Inhibition=100-O.Dtestcompound/O.Dcontrol×100 2 SE=σ/n
By IC50 is commonly meant the concentration needed to halve the response being measured. As for `O=C(Cn1cc(Cn2c3ccccc3c3cc(-c4ccc5c(c4)c4ccccc4n5Cc4cn(CC(=O)c5ccc(Cl)cc5)nn4)ccc32)nn1)c1ccc(Cl)cc1` [Compound 7], the IC50 amounted to 26.3 ± 0.76 µM.

As for `O=C(Cn1cc(Cn2c3ccccc3c3cc(-c4ccc5c(c4)c4ccccc4n5Cc4cn(CC(=O)c5ccc(Br)cc5)nn4)ccc32)nn1)c1ccc(Br)cc1` [Compound 8], the IC50 is 28.3 ± 0.64 µM.

As to `COc1ccc(C(=O)Cn2cc(Cn3c4ccccc4c4cc(-c5ccc6c(c5)c5ccccc5n6Cc5cn(CC(=O)c6ccc(OC)cc6)nn5)ccc43)nn2)cc1` [Compound 9], the IC50 came to 31.1 ± 0.84 µM.

As to Bacitracin [reference compound], the 50% inhibitory concentration (IC50) came out at 125 ± 1.5 µM.

The subject of the next data set is human fibroblast BJ cell line. The experiment in a line: Cytotoxicity evaluation (MTT) on BJ cell line. It counts as cell-based. As to conditions: 60 µM, 48 h, BJ cells, mean of three. The procedure:
To investigate the cytotoxic effect of these compounds we proceeded all the active compounds 3–9 for their in-vitro study by using BJ cell line. Here we designed our experiment with a specific count of the cells with 6 × 10^4 cells/well were employed into the plate. In each well we added 100 µL followed by 24 h incubation at specific temperature 37 °C in 5% CO2. After that, the 96-well plate was incubated with 50 µL/well (60 µM) of the tested compounds along with 150 µL/well fresh media for 48 h at the similar specific experimental conditions. After 2nd time of incubation, the old media was replaced with 200 µL yellow MTT dye in each well according to 1:10 ratio with the media followed by 4-h incubation. In the next step the dye was removed completely and DMSO (Dimethyl sulfoxide) cell culture grade 100 µL/well was employed into the 96-well plate to dissolve the produced formazan crystals of MTT dye converted into purple. At the end of experiment the obtained changes in the (OD) optical density was monitored at 540 by using spectrophotometer.
On to `O=C(Cn1cc(Cn2c3ccccc3c3cc(-c4ccc5c(c4)c4ccccc4n5Cc4cn(CC(=O)c5ccc(Cl)cc5)nn4)ccc32)nn1)c1ccc(Cl)cc1` [Compound 7], for which the “% Inhibition ± SEM (µM)” value is listed as 23.95 ± 1.83%.

Regarding `O=C(Cn1cc(Cn2c3ccccc3c3cc(-c4ccc5c(c4)c4ccccc4n5Cc4cn(CC(=O)c5ccc(Br)cc5)nn4)ccc32)nn1)c1ccc(Br)cc1` [Compound 8], the “% Inhibition ± SEM (µM)” value came out at 23.27 ± 1.87%.

With `COc1ccc(C(=O)Cn2cc(Cn3c4ccccc4c4cc(-c5ccc6c(c5)c5ccccc5n6Cc5cn(CC(=O)c6ccc(OC)cc6)nn5)ccc43)nn2)cc1` [Compound 9], the “% Inhibition ± SEM (µM)” value turned out to be 19.16 ± 1.38%.

Staying with this data set, now noted: 60 µM, BJ cells.
Consider `C=Cn1c2ccccc2c2ccccc21` [Compound 3], for which the Cytotoxicity effect result is given as “Non-toxic”.

On to `C=Cn1c2ccccc2c2cc(-c3ccc4c(c3)c3ccccc3n4C=C)ccc21` [Compound 4], for which the Cytotoxicity effect result is “Non-toxic”.

On to `O=C(Cn1cc(Cn2c3ccccc3c3cc(-c4ccc5c(c4)c4ccccc4n5Cc4cn(CC(=O)c5ccccc5)nn4)ccc32)nn1)c1ccccc1` [Compound 5], for which the Cytotoxicity effect entry is “Non-toxic”.

In the case of `Cc1ccc(C(=O)Cn2cc(Cn3c4ccccc4c4cc(-c5ccc6c(c5)c5ccccc5n6Cc5cn(CC(=O)c6ccc(C)cc6)nn5)ccc43)nn2)cc1` [Compound 6], the Cytotoxicity effect result was “Non-toxic”.

`O=C(Cn1cc(Cn2c3ccccc3c3cc(-c4ccc5c(c4)c4ccccc4n5Cc4cn(CC(=O)c5ccc(Cl)cc5)nn4)ccc32)nn1)c1ccc(Cl)cc1` [Compound 7]: the Cytotoxicity effect result was “Non-toxic”.

On to `O=C(Cn1cc(Cn2c3ccccc3c3cc(-c4ccc5c(c4)c4ccccc4n5Cc4cn(CC(=O)c5ccc(Br)cc5)nn4)ccc32)nn1)c1ccc(Br)cc1` [Compound 8], for which the Cytotoxicity effect entry was “Non-toxic”.

In the case of `COc1ccc(C(=O)Cn2cc(Cn3c4ccccc4c4cc(-c5ccc6c(c5)c5ccccc5n6Cc5cn(CC(=O)c6ccc(OC)cc6)nn5)ccc43)nn2)cc1` [Compound 9], the Cytotoxicity effect entry is listed as “Non-toxic”.

The data set is the same for the next values; noted with them: 48 h, BJ cells, first replicate column.
With `C=Cn1c2ccccc2c2ccccc21` [Compound 3], the “% Inhibition of cell viability (60 µM)” value came out at 26.34%.

For `C=Cn1c2ccccc2c2cc(-c3ccc4c(c3)c3ccccc3n4C=C)ccc21` [Compound 4], the “% Inhibition of cell viability (60 µM)” value is 22.75%.

For the compound `O=C(Cn1cc(Cn2c3ccccc3c3cc(-c4ccc5c(c4)c4ccccc4n5Cc4cn(CC(=O)c5ccccc5)nn4)ccc32)nn1)c1ccccc1` [Compound 5], the “% Inhibition of cell viability (60 µM)” value is on record as 25.14%.

Regarding `Cc1ccc(C(=O)Cn2cc(Cn3c4ccccc4c4cc(-c5ccc6c(c5)c5ccccc5n6Cc5cn(CC(=O)c6ccc(C)cc6)nn5)ccc43)nn2)cc1` [Compound 6], the “% Inhibition of cell viability (60 µM)” value came to 21.55%.

As for `O=C(Cn1cc(Cn2c3ccccc3c3cc(-c4ccc5c(c4)c4ccccc4n5Cc4cn(CC(=O)c5ccc(Cl)cc5)nn4)ccc32)nn1)c1ccc(Cl)cc1` [Compound 7], the “% Inhibition of cell viability (60 µM)” value amounted to 20.35%.

As for `O=C(Cn1cc(Cn2c3ccccc3c3cc(-c4ccc5c(c4)c4ccccc4n5Cc4cn(CC(=O)c5ccc(Br)cc5)nn4)ccc32)nn1)c1ccc(Br)cc1` [Compound 8], the “% Inhibition of cell viability (60 µM)” value came to 19.52%.

`COc1ccc(C(=O)Cn2cc(Cn3c4ccccc4c4cc(-c5ccc6c(c5)c5ccccc5n6Cc5cn(CC(=O)c6ccc(OC)cc6)nn5)ccc43)nn2)cc1` [Compound 9]: the “% Inhibition of cell viability (60 µM)” value came out at 16.75%.

The data set is the same for the next values; noted with them: 48 h, BJ cells, second replicate column.
On to `C=Cn1c2ccccc2c2ccccc21` [Compound 3], for which the “% Inhibition of cell viability (60 µM)” value was 22.74%.

Turning to `C=Cn1c2ccccc2c2cc(-c3ccc4c(c3)c3ccccc3n4C=C)ccc21` [Compound 4], the “% Inhibition of cell viability (60 µM)” value is reported as 21.55%.

Consider `O=C(Cn1cc(Cn2c3ccccc3c3cc(-c4ccc5c(c4)c4ccccc4n5Cc4cn(CC(=O)c5ccccc5)nn4)ccc32)nn1)c1ccccc1` [Compound 5], for which the “% Inhibition of cell viability (60 µM)” value is on record as 22.74%.

On to `Cc1ccc(C(=O)Cn2cc(Cn3c4ccccc4c4cc(-c5ccc6c(c5)c5ccccc5n6Cc5cn(CC(=O)c6ccc(C)cc6)nn5)ccc43)nn2)cc1` [Compound 6], for which the “% Inhibition of cell viability (60 µM)” value was found to be 20.35%.

Regarding `O=C(Cn1cc(Cn2c3ccccc3c3cc(-c4ccc5c(c4)c4ccccc4n5Cc4cn(CC(=O)c5ccc(Cl)cc5)nn4)ccc32)nn1)c1ccc(Cl)cc1` [Compound 7], the “% Inhibition of cell viability (60 µM)” value was determined as 26.34%.

`O=C(Cn1cc(Cn2c3ccccc3c3cc(-c4ccc5c(c4)c4ccccc4n5Cc4cn(CC(=O)c5ccc(Br)cc5)nn4)ccc32)nn1)c1ccc(Br)cc1` [Compound 8]: the “% Inhibition of cell viability (60 µM)” value worked out at 25.14%.

Take `COc1ccc(C(=O)Cn2cc(Cn3c4ccccc4c4cc(-c5ccc6c(c5)c5ccccc5n6Cc5cn(CC(=O)c6ccc(OC)cc6)nn5)ccc43)nn2)cc1` [Compound 9]: the “% Inhibition of cell viability (60 µM)” value is reported as 21.55%.

Still in this data set, the particulars now being: 48 h, BJ cells, third replicate column.
With `C=Cn1c2ccccc2c2ccccc21` [Compound 3], the “% Inhibition of cell viability (60 µM)” value is given as 23.95%.

Turning to `C=Cn1c2ccccc2c2cc(-c3ccc4c(c3)c3ccccc3n4C=C)ccc21` [Compound 4], the “% Inhibition of cell viability (60 µM)” value is 26.34%.

On to `O=C(Cn1cc(Cn2c3ccccc3c3cc(-c4ccc5c(c4)c4ccccc4n5Cc4cn(CC(=O)c5ccccc5)nn4)ccc32)nn1)c1ccccc1` [Compound 5], for which the “% Inhibition of cell viability (60 µM)” value came to 20.35%.

With `Cc1ccc(C(=O)Cn2cc(Cn3c4ccccc4c4cc(-c5ccc6c(c5)c5ccccc5n6Cc5cn(CC(=O)c6ccc(C)cc6)nn5)ccc43)nn2)cc1` [Compound 6], the “% Inhibition of cell viability (60 µM)” value is listed as 23.95%.

`O=C(Cn1cc(Cn2c3ccccc3c3cc(-c4ccc5c(c4)c4ccccc4n5Cc4cn(CC(=O)c5ccc(Cl)cc5)nn4)ccc32)nn1)c1ccc(Cl)cc1` [Compound 7]: the “% Inhibition of cell viability (60 µM)” value is 25.14%.

As to `O=C(Cn1cc(Cn2c3ccccc3c3cc(-c4ccc5c(c4)c4ccccc4n5Cc4cn(CC(=O)c5ccc(Br)cc5)nn4)ccc32)nn1)c1ccc(Br)cc1` [Compound 8], the “% Inhibition of cell viability (60 µM)” value stood at 25.14%.

In the case of `COc1ccc(C(=O)Cn2cc(Cn3c4ccccc4c4cc(-c5ccc6c(c5)c5ccccc5n6Cc5cn(CC(=O)c6ccc(OC)cc6)nn5)ccc43)nn2)cc1` [Compound 9], the “% Inhibition of cell viability (60 µM)” value was determined as 19.16%.

The data set is the same for the next values; noted with them: Homo sapiens, 48 h, BJ cells, mean of three, read-out: % Inhibition ± SEM.
For orientation: inhibition means the change of the read-out against control, counted positive when it falls. Take `C=Cn1c2ccccc2c2ccccc21` [Compound 3]: the inhibition at 60 µM was found to be 24.4 ± 1.1%.

With `C=Cn1c2ccccc2c2cc(-c3ccc4c(c3)c3ccccc3n4C=C)ccc21` [Compound 4], the inhibition at 60 µM was determined as 23.6 ± 1.44%.

Take `O=C(Cn1cc(Cn2c3ccccc3c3cc(-c4ccc5c(c4)c4ccccc4n5Cc4cn(CC(=O)c5ccccc5)nn4)ccc32)nn1)c1ccccc1` [Compound 5]: the inhibition at 60 µM was determined as 22.8 ± 1.38%.

Consider `Cc1ccc(C(=O)Cn2cc(Cn3c4ccccc4c4cc(-c5ccc6c(c5)c5ccccc5n6Cc5cn(CC(=O)c6ccc(C)cc6)nn5)ccc43)nn2)cc1` [Compound 6], for which the inhibition at 60 µM came to 21.9 ± 1.05%.
